Key:
M-NFS-60 cells = assay: Proliferation of CSF-1R highly activated mouse myeloid leukemia cell M-NFS-60 (CCK-8); format: cell-based; conditions: 72 h, read-out: IC50 inhibition of cell proliferation, M-NFS-60
[1] = system: CSF-1-induced bone marrow-derived macrophages (BMDM); assay: CSF-1-induced murine-derived macrophage (BMDM) survival (CCK-8); format: cell-based, BALB/c mice; conditions: Mus musculus, 168 h, murine-derived macrophages, 100 ng/mL CSF-1, 7 days, mean±SD, read-out: IC50 inhibition of cell survival, BMDM (CSF-1)
Description: BALB/c mice (female, 6 weeks old, healthy) were sacrificed. Bone marrow cells were taken from their femurs and tibia, and seeded into a 96-well culture plate at appropriate densities (90 µL per well) after erythrobiasis treatment. 100 ng/mL of CSF-1 factor was added to each well to induce macrophages (Bone marrow-derived macrophages, BMDM), and compounds at various concentrations were added and the plate was allowed for incubation for 7 days. A solvent control group (negative control) was set. After 7 day-exposure of the cells to the compounds, 10 µL of CCK-8 reagent was added to each well. The culture plate was placed in an incubator at 37° C. for 2-4 h, and then was read with a full-wavelength microplate reader setting at the wavelength of 450 nm.

[2] = system: CSF-1-induced human macrophages (PBMC-derived CD14+ monocytes); assay: Survival of CSF-1-induced human macrophages from PBMC (CCK-8); format: cell-based; conditions: 168 h; human-derived macrophages, 100 ng/mL CSF-1, 7 days; mean±SD; read-out: IC50 inhibition of cell survival, PBMC (CSF-1)
Description: Cryopreserved human-derived peripheral blood (peripheral blood from healthy donors) mononuclear cells (PBMCs) were taken out of liquid nitrogen for recovery. After recovery, the cells were re-suspended at 50 million/mL with the running buffer and DNAase I was added at a final concentration of 100 µg/mL and the plate was allowed for incubation for 15 min at room temperature. After centrifugation at 300 g for 5 min, the supernatant was discarded. The pellet was re-suspended at 50 million cells/mL with the running buffer, and the suspension was filtered through a 70 µM filter screen into a flow tube. The cells were sorted by using CD14+ monocyte negative selection beads sorting kit from […] company. According to the manufacture’s instructions, the specific experimental procedures were as follows.
After cells were re-suspended at 50 million cells/mL, 50 µL of the cocktail was added to each one mL of samples. The samples were incubated at room temperature for 5 min. The magnetic beads were vortexed for 30 sec, and added to the samples. The samples were incubated for further 5 min. The sample volumes were made up to 2.5 mL. The samples were placed on a magnetic frame ([…], #18000) for 2.5 min. […] The plate was placed in an incubator at 37° C. for 2-4 h, and then was read with an adjustable wavelength microplate reader setting at a wavelength of 450 nm.

[3] = cited from earlier work

## FC(F)(F)c1ccc(CNc2ccc(Cc3c[nH]c4ncc(Cl)cc34)cn2)cn1 [PLX3397, Pexidartinib, reference compound]
M-NFS-60 cells
  IC50: 62.6 ± 15.8 nM
[1]
  IC50: 48.9 ± 5.9 nM
[2]
  IC50: 237 ± 14.7 nM
[3]; drug label
  black box warning on drug label: risk of severe and potentially fatal liver injury

## Bavencio: anti-PD-L1 antibody
[3]; some of the patients
  adverse response in treated patients: infusion-related response predominantly of grade 1-3 severity

## Yervoy: an anti-CTLA-4 antibody
[3]; treated patients
  patients experiencing immune-related adverse events: up to 60%
  share of immune-related adverse events that were severe (grade 3-4): 10-30%

From US20230285389A1, “USE OF CSF-1R KINASE INHIBITOR” (Shanghai Runshi Medical Technology Co., Ltd, priority 2020, published 2023)
